From US20240124432A1, “HERBICIDAL COMPOUNDS” (SYNGENTA CROP PROTECTION AG, priority 2020, published 2024) come the findings set out here.

What all share (format): in vivo
The subject of test [1] is AMAPA. Briefly: Pre-emergence biological efficacy. The following applies: Amaranthus palmeri, 312 h, evaluated after 13 days, read-out: damage to plant (100=total damage to plant; 0=no damage to plant). The method in brief:
(§1)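 Injury rating (0 = no damage, 100 = plant killed) taken 13 days after a single spray of compound at the chosen dose onto freshly sown pots held 1 day in the glasshouse beforehand.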

Test [2] relates to IPOHE. Put plainly: Pre-emergence biological efficacy. The following applies: Ipomoea hederacea, 312 h, evaluated after 13 days, read-out: damage to plant (100=total damage to plant; 0=no damage to plant). The procedure, abridged: as §1
The test system of test [3] is LOLPE. Briefly: Pre-emergence biological efficacy. The following applies: Lolium perenne, 312 h, evaluated after 13 days, read-out: damage to plant (100=total damage to plant; 0=no damage to plant). The procedure, abridged: as §1
The subject of test [4] is SETFA. Briefly: Pre-emergence biological efficacy. As to conditions: Setaria faberi, 312 h, evaluated after 13 days, read-out: damage to plant (100=total damage to plant; 0=no damage to plant). The method in brief: as §1
Test [5] relates to ECHCG. Put plainly: Pre-emergence biological efficacy. As to conditions: Echinochloa crus-galli, 312 h, evaluated after 13 days, read-out: damage to plant (100=total damage to plant; 0=no damage to plant). The procedure, abridged: as §1
The test system of test [6] is EPHHL. Briefly: Pre-emergence biological efficacy. As to conditions: Euphorbia heterophylla, 312 h, evaluated after 13 days, read-out: damage to plant (100=total damage to plant; 0=no damage to plant). The method in brief: as §1
A further test has as its system CHEAL. Briefly: Post-emergence biological efficacy. The following applies: Chenopodium album, 312 h, evaluated after 13 days, read-out: damage to plant (100=total damage to plant; 0=no damage to plant). The method in brief: (§2)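 Damage was rated 13 days after treatment, from 0 (none) to 100 (total). Test compounds, formulated in IF50 and diluted with 0.2% Genapol XO80 to final dose, were sprayed on glasshouse plants raised for 14 days from seed.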

In test [7] the test system is AMAPA. Put plainly: Post-emergence biological efficacy. As to conditions: Amaranthus palmeri, 312 h, evaluated after 13 days, read-out: damage to plant (100=total damage to plant; 0=no damage to plant). The method in brief: as §2
Another test concerns ELEIN. Put plainly: Post-emergence biological efficacy. The following applies: 312 h, evaluated after 13 days, read-out: damage to plant (100=total damage to plant; 0=no damage to plant). The procedure, abridged: as §2
The test system of test [8] is IPOHE. Briefly: Post-emergence biological efficacy. As to conditions: Ipomoea hederacea, 312 h, evaluated after 13 days, read-out: damage to plant (100=total damage to plant; 0=no damage to plant). The method in brief:
as §2

The subject of test [9] is LOLPE. Put plainly: Post-emergence biological efficacy. As to conditions: Lolium perenne, 312 h, evaluated after 13 days, read-out: damage to plant (100=total damage to plant; 0=no damage to plant). The procedure, abridged:
as §2

Test [10] relates to SETFA. Briefly: Post-emergence biological efficacy. As to conditions: Setaria faberi, 312 h, evaluated after 13 days, read-out: damage to plant (100=total damage to plant; 0=no damage to plant). The procedure, abridged:
as §2

The subject of the next test is DIGSA. Put plainly: Post-emergence biological efficacy. The following applies: Digitaria sanguinalis, 312 h, evaluated after 13 days, read-out: damage to plant (100=total damage to plant; 0=no damage to plant). The procedure, abridged:
as §2

Test [11] deals with ECHCG. Put plainly: Post-emergence biological efficacy. The following applies: Echinochloa crus-galli, 312 h, evaluated after 13 days, read-out: damage to plant (100=total damage to plant; 0=no damage to plant). The procedure, abridged: as §2
The subject of test [12] is EPHHL. Put plainly: Post-emergence biological efficacy. As to conditions: Euphorbia heterophylla, 312 h, evaluated after 13 days, read-out: damage to plant (100=total damage to plant; 0=no damage to plant). The procedure, abridged: as §2

Consider `CCOC(=O)C1(C)CC(c2cc(-c3cc(C(F)(F)F)ccn3)c(F)cc2Cl)=NO1` (stereo not drawn) [Compound 1-319, Ethyl 3-[2-chloro-4-fluoro-5-[4-(trifluoromethyl)-2-pyridyl]-phenyl]-5-methyl-4H-isoxazole-5-carboxylate], for which the pest or weed control at 250 g/ha with AMAPA [1] amounted to 40%; in the test with IPOHE [2] it was 0%; in the test with LOLPE [3], 10%; in the test with SETFA [4] it was 0%; with ECHCG [5] it was 30%; in the test on EPHHL [6] it was 20%. For the same compound, the pest or weed control at 250 g/ha in the test with CHEAL was 90%; in the test with AMAPA [7] it was 80%; with ELEIN, 40%; with IPOHE [8] it was 100%; with LOLPE [9] it was 10%; with SETFA [10], 70%. The pest or weed control at 250 g/ha with DIGSA stood at 80%; with ECHCG [11], 60%; with EPHHL [12], 80%.

For `CCOC(=O)C1(C)CC(c2cc(-c3ncc(F)cc3Cl)c(F)cc2Cl)=NO1` (stereo not drawn) [Compound 1-331, Ethyl 3-[2-chloro-5-(3-chloro-5-fluoro-2-pyridyl)-4-fluoro-phenyl]-5-methyl-4H-isoxazole-5-carboxylate], the pest or weed control at 250 g/ha turned out to be 100% in the test with AMAPA [1]; 60% with IPOHE [2]; 80% with LOLPE [3]; 100% in the test with SETFA [4]; 90% in the test with ECHCG [5]; 100% in the test on EPHHL [6]. Further, the pest or weed control at 250 g/ha in the test with CHEAL, with AMAPA [7], with ELEIN, with IPOHE [8], with LOLPE [9] and in the test on SETFA [10] was 100% each time. In addition, the pest or weed control at 250 g/ha in the test with DIGSA, in the test with ECHCG [11] and in the test on EPHHL [12] was 100% each time.

On to `CCOC(=O)C1(C)CC(c2cc(-c3ncc(Cl)cc3C(F)(F)F)c(F)cc2Cl)=NO1` (stereo not drawn) [Compound 1-343, Ethyl 3-[2-chloro-5-[5-chloro-3-(trifluoromethyl)-2-pyridyl]-4-fluoro-phenyl]-5-methyl-4H-isoxazole-5-carboxylate], for which the pest or weed control at 250 g/ha in the test with AMAPA [1] worked out at 70%; with IPOHE [2] it was 60%; in the test with LOLPE [3], 20%; in the test with SETFA [4], 50%; with ECHCG [5], 30%; in the test with EPHHL [6] it was 50%. Moreover, the pest or weed control at 250 g/ha with CHEAL is 100%; in the test with AMAPA [7] it was 100%; with ELEIN it was 100%; in the test with IPOHE [8], 100%; in the test on LOLPE [9] it was 60%; with SETFA [10], 100%. In addition, the pest or weed control at 250 g/ha was 100% with DIGSA, 80% in the test on ECHCG [11] and 100% in the test on EPHHL [12].

In the case of `CCOC(=O)C1(C)CC(c2cc(-c3ncc([N+](=O)[O-])cc3Cl)c(F)cc2Cl)=NO1` (stereo not drawn) [Compound 1-355, Ethyl 3-[2-chloro-5-(3-chloro-5-nitro-2-pyridyl)-4-fluoro-phenyl]-5-methyl-4H-isoxazole-5-carboxylate], the pest or weed control at 250 g/ha is 0% with AMAPA [1]; 20% in the test on IPOHE [2]; 20% in the test with LOLPE [3]; 10% in the test with SETFA [4]; 10% with ECHCG [5]; 20% with EPHHL [6]. Moreover, the pest or weed control at 250 g/ha with CHEAL was 60%; with AMAPA [7], 100%; in the test with ELEIN it was 50%; in the test on IPOHE [8] it was 70%; with LOLPE [9] it was 50%; in the test with SETFA [10], 40%. Besides, the pest or weed control at 250 g/ha in the test with DIGSA was 50%; in the test with ECHCG [11], 50%; in the test with EPHHL [12], 80%.

In the case of `CCOC(=O)C1(C)CC(c2cc(-c3cc(C)cc(F)n3)c(F)cc2Cl)=NO1` (stereo not drawn) [Compound 1-367, Ethyl 3-[2-chloro-4-fluoro-5-(6-fluoro-4-methyl-2-pyridyl)-phenyl]-5-methyl-4H-isoxazole-5-carboxylate], the pest or weed control at 250 g/ha in the test on AMAPA [1], with IPOHE [2], with LOLPE [3], in the test with SETFA [4], in the test on ECHCG [5] and with EPHHL [6] was 0% each time. Further, the pest or weed control at 250 g/ha was determined as 20% in the test with CHEAL; 0% in the test with AMAPA [7]; 20% with ELEIN; 40% in the test with IPOHE [8]; 0% with LOLPE [9]; 40% in the test on SETFA [10]. For the same compound, the figures for the pest or weed control at 250 g/ha in the test with DIGSA, with ECHCG [11] and in the test on EPHHL [12] were 50%, 40% and 30%, respectively.

Take `CCOC(=O)C1(C)CC(c2cc(-c3cncc(OC)c3)c(F)cc2Cl)=NO1` (stereo not drawn) [Compound 1-379, Ethyl 3-[2-chloro-4-fluoro-5-(5-methoxy-3-pyridyl)-phenyl]-5-methyl-4H-isoxazole-5-carboxylate]: the pest or weed control at 250 g/ha in the test with AMAPA [1], in the test with IPOHE [2], in the test on LOLPE [3], in the test on SETFA [4], in the test with ECHCG [5] and in the test on EPHHL [6] was 0% throughout. For the same compound, the pest or weed control at 250 g/ha in the test with CHEAL turned out to be 50%; in the test on AMAPA [7], 100%; with ELEIN, 40%; in the test on IPOHE [8], 80%; in the test on LOLPE [9], 10%; with SETFA [10] it was 40%. The pest or weed control at 250 g/ha in the test with DIGSA was determined as 60%; in the test with ECHCG [11], 40%; in the test on EPHHL [12], 50%.

On to `CCOC(=O)C1(C)CC(c2cc(-c3cnc(F)c(F)c3)c(F)cc2Cl)=NO1` (stereo not drawn) [Compound 1-391, Ethyl 3-[2-chloro-5-(5,6-difluoro-3-pyridyl)-4-fluoro-phenyl]-5-methyl-4H-isoxazole-5-carboxylate], for which the pest or weed control at 250 g/ha with AMAPA [1], in the test with IPOHE [2], with LOLPE [3], in the test with SETFA [4], in the test on ECHCG [5] and in the test with EPHHL [6] was 0% in each case. In addition, the pest or weed control at 250 g/ha with CHEAL is 50%; with AMAPA [7], 60%; in the test on ELEIN, 40%; in the test with IPOHE [8], 40%; in the test with LOLPE [9], 10%; in the test with SETFA [10], 40%. Besides, the pest or weed control at 250 g/ha in the test with DIGSA is 50%; in the test with ECHCG [11] it was 40%; in the test on EPHHL [12], 50%.

For `CCOC(=O)C1(C)CC(c2cc(-c3cnc(F)c(Cl)c3)c(F)cc2Cl)=NO1` (stereo not drawn) [Compound 1-403, Ethyl 3-[2-chloro-5-(5-chloro-6-fluoro-3-pyridyl)-4-fluoro-phenyl]-5-methyl-4H-isoxazole-5-carboxylate], the pest or weed control at 250 g/ha in the test on AMAPA [1] was determined as 30%; in the test on IPOHE [2] it was 10%; in the test on LOLPE [3] it was 20%; in the test on SETFA [4], 0%; in the test on ECHCG [5] it was 40%; with EPHHL [6], 20%. In addition, the pest or weed control at 250 g/ha in the test on CHEAL was found to be 70%; in the test with AMAPA [7] it was 70%; in the test with ELEIN it was 60%; in the test with IPOHE [8], 50%; in the test on LOLPE [9] it was 20%; in the test with SETFA [10], 40%. Also, the pest or weed control at 250 g/ha in the test on DIGSA came out at 70%; in the test on ECHCG [11], 40%; with EPHHL [12] it was 70%.
